Literature values, collected in patent US20240016731A1, “Drug Implants Containing Apalutamide and Methods of Use Thereof” (The Regents of the University of California, priority 2020, published 2024).

Conditions: systemic (e.g., oral) administration, assuming 240 mg daily dose

CNC(=O)c1ccc(N2C(=S)N(c3cnc(C#N)c(C(F)(F)F)c3)C(=O)C23CCC3)cc1F [apalutamide, Apalutamide]
steady state blood plasma concentration of apalutamide: about 6 μg/ml
